# From the OPERA property sets (Mansouri et al. 2018)
# Peptide text beside a SMILES is read from it.
row,SMILES,logP
1,OCCCc1nc2ccccc2[nH]1,1.25
2,O=C(O)c1ccccc1Oc1ccccc1,3.11
3,CCC1=Nc2ccc(Cl)cc2S(=O)(=O)N1,1.62
4,Cc1ccc(C)n1N(C)c1ccc(N2CCOCC2)nn1,2.21
5,CC(C)CCOC(=O)c1cc(O)c(O)c(O)c1,2.8
6,N#CSCc1ccccc1,1.99
7,CC(=O)O[C@H]1C[C@H](O[C@H]2[C@@H](O)C[C@H](O[C@H]3[C@@H](O)C[C@H](O[C@H]4CC[C@@]5(C)[C@H](CC[C@@H]6[C@@H]5C[C@@H](O)[C@]5(C)[C@@H](C7=CC(=O)OC7)CC[C@]65O)C4)O[C@@H]3C)O[C@@H]2C)O[C@H](C)[C@H]1O[C@@H]1O[C@H](CO)[C@@H](O)[C@H](O)[C@H]1O,0.07
8,O=C1CN=C(c2ccccc2C(F)(F)F)c2ccccc2N1,2.47
9,C=CCN1CC[C@]23c4c5ccc(O)c4O[C@H]2[C@@H](O)C=C[C@H]3[C@H]1C5,1.86
10,CCC(C)(C)Cl,2.52
11,FCF,0.2
12,COC(=O)C(Cc1ccc(O)cc1)NC(C)=O (stereo not given),0.33
13,OCC(O)c1ccc(O)c(O)c1 (stereo not given),-1.01
14,NC(=O)CCCc1cccnc1,-0.08
15,CON(C)C(=O)Nc1cccc(O)c1,0.83
16,CC(=O)C=Cc1ccco1,1.35
17,NC(=O)Nc1cccc(Cl)c1,1.82
18,CCCCOc1ccc(O)cc1,2.9
19,CCCOC(C)=O,1.24
20,CCCC(=O)CC(=O)CCC,2.23
21,Cc1ccc(C=C(C#N)C#N)cc1,2.4
22,COc1cc(S(C)=O)ccc1-c1nc2nccnc2[nH]1 (stereo not given),0.66
23,Cc1c(O)c(=O)ccn1CCN,-1.55
24,CCOP(=O)(OCC)SCn1nnc2ccccc2c1=O,1.63
25,O=C(COc1ccccc1)N1CCOCC1,0.74
26,CC(=O)Nc1cccc(C)c1,1.68

row,SMILES,logP
1,CC(C)N(C)/N=N/c1ccc(C(N)=O)cc1,2.02
2,Oc1nc(Cl)c(Cl)cc1Cl,3.21
3,O=[N+]([O-])c1ccsc1,1.55
4,CCOC(=O)Oc1cccc2cccnc12,1.73
5,CN(C)C(N(C)C)=S(I)c1ccc(Cl)cc1Cl (stereo not given),0.47
6,COc1ccccc1N,1.18
7,CCOP(=O)(OCC)OCC,0.8
8,CC(C)(C)C(=O)c1ccccc1,3
9,CCCBr,2.1
10,CON=C(C(=O)NC1C(=O)N2C(C(=O)OCOC(=O)C(C)(C)C)=C(CSc3nnnn3C)CSC12)c1csc(N)n1 (stereo not given),1.74
11,CCOP(=S)(NC(C)C)Oc1ccccc1C(=O)OC(C)C (stereo not given),4.12
12,CCc1ccc(S(I)=C(N(C)C)N(C)C)cc1 (stereo not given),0.29
13,O=C(O)c1ccc2ccccc2c1,3.28
14,O=C(O)Cc1ccccc1Nc1cc(Cl)ccc1Cl,4.94
15,Cc1ccc(OCC(=O)O)cc1,1.86
16,CCC(C)C(NC(C)=O)C(=O)NC(Cc1ccccc1)C(=O)NC(C)C(N)=O (stereo not drawn) (Ac-Ile-Phe-Ala-NH2; configuration not given here),0.52
17,O=[N+]([O-])c1cccc2ncccc12,1.86
18,NC(=O)CCc1cccnc1,-0.26
19,CCOC(=O)CC,1.21
20,NC(=O)c1ccc([N+](=O)[O-])cc1,0.82
21,O=C(O)c1ccccc1Nc1cccc(C(F)(F)F)c1,5.25
22,CC1(C)N=C(N)N=C(N)N1c1ccc(Br)cc1,1.09
23,Cc1ncc([N+](=O)[O-])n1CC(C)O (stereo not given),0.22
24,COP(=O)(OC)Oc1ccc([N+](=O)[O-])c(C(C)C)c1,2.57
25,Fc1cccnc1,0.77
26,COc1cccc(-c2cc3ccccn3c2)c1,4.14

row,SMILES,logP
1,CCCCC#N,1.12
2,CCCCC1OC(=O)c2ccccc21 (stereo not given),2.8
3,Nc1cc[nH]c(=O)n1,-1.73
4,COc1cc(O)ccc1O,0.47
5,CCOC(=O)CNC(=O)CNC(=O)CCCCSc1ncnc2nc[nH]c12,0.5
6,CNCC(c1ccccc1)C(C)C (stereo not given),3.12
7,COP(=S)(NC(C)C)Oc1ccc(Cl)cc1Cl (stereo not given),4.3
8,O=C(O)c1ccc(I)cc1,3.02
9,CC(=O)OCC(=O)[C@@]1(O)[C@@H](C)C[C@H]2[C@@H]3CCC4=CC(=O)C=C[C@]4(C)[C@@]3(F)[C@@H](O)C[C@@]21C,2.77
10,CCNC,0.15
11,Cc1ccc(-c2cc3ccccn3c2)cc1,4.96
12,O=C(O)c1ccc(Oc2ccccc2)cc1,3.91
13,CCCCCCC(C)(C)c1ccc(C2CC(O)CCC2CCCCO)c(O)c1 (stereo not given),6.68
14,Cc1ccc(-c2nc(N)nc(N)n2)cc1,1.92
15,CCN(CC)C(=O)[C@@H]1C=C2c3cccc4[nH]cc(c34)C[C@H]2N(C)C1,2.95
16,CNC(=O)Oc1ccc([N+](=O)[O-])cc1,1.47
17,C#CC(C)N(C)C(=O)Nc1ccc(Cl)cc1 (stereo not given),3
18,O=C=O,0.83
19,COc1ccc(Br)cc1-c1nc(N)nc(N)n1,1.53
20,O=NN(CCCl)C(=O)NC1C(O)OC(CO)C(O)C1O (stereo not given),-1.02
21,c1ccc(COc2cccc3cccnc23)cc1,3.51
22,COc1ccc(S(I)=C(N(C)C)N(C)C)cc1 (stereo not given),-0.51
23,CNC(=O)OCc1cccc(COC(=O)NC)n1,0.24
24,CCN(CC)CCNC(=O)c1cc(S(=O)(=O)CC)c(N)cc1OC,1.7
25,CCOC(=O)C(=Cc1cccc(OC)c1)C(C)=O,2.34
26,Nc1nc(N)nc(-c2ccccc2I)n1,1.41

row,SMILES,logP
1,O=C1CCC(=O)N1c1ccc(Br)cc1,1.18
2,CC(=O)Oc1ccccc1C#N,1.33
3,ClC=C(Cl)Cl,2.42
4,NCCCCNC(=O)c1ccccc1,0.58
5,COCC(=O)N(c1c(C)cccc1C)C(C)C(=O)OC (stereo not given),1.65
6,CC1OC(C)OC(C)O1 (stereo not given),0.67
7,Nc1ccc(C(=O)Oc2cccc(C(F)(F)F)c2)c(O)c1,3.61
8,Cc1ncc([N+](=O)[O-])n1CCNC(=O)OCc1ccccc1,1.69
9,c1ccc2cc3ccccc3cc2c1,4.45
10,S=C1CCCO1,0.6
11,N#CCc1ccc([N+](=O)[O-])cc1,1.37
12,COc1ccc2c(c1)C13CCN4CC5=CCOC6CC(=O)N2C1C6C5CC43 (stereo not given),1.85
13,CCCC(C)(C)c1ccc(C2CCCC(O)C2)c(O)c1 (stereo not given),4.82
14,O=C(O)c1cccc(I)c1,3.13
15,Cc1cccs1,2.33
16,Oc1ccc(I)cc1,2.91
17,CC(C)c1cccc(C(C)C)c1NC(N)=O,2.26
18,COc1ccc(NC=O)cc1,1.03
19,Nc1c([N+](=O)[O-])cc(C(F)(F)F)cc1[N+](=O)[O-],2.29
20,CN(C)C(N(C)C)=S(I)c1ccc(S(=O)(=O)N(C)C)cc1 (stereo not given),-0.81
21,O=C(O)Cc1ccccc1Nc1c(F)cccc1Cl,3.8
22,NS(=O)(=O)c1ccc(I)cc1,1.59
23,C[C@]12CC[C@H]3[C@@H](CCC4=CC(=O)CC[C@@]43C)[C@@H]1CC[C@@H]2C(=O)CO,2.88
24,CCC1(C2=CCCCC2)C(=O)NC(=O)NC1=O,1.77
25,CCCc1nc2cccc(C)n2c(=O)c1CC,2.37
26,O=[N+]([O-])C=Cc1cccs1,1.96

row,SMILES,logP
1,CC(=O)C(F)(F)F,0.2
2,O=[N+]([O-])c1ccc(OCCN2CCOCC2)cc1,1.54
3,Cc1ccc(C)c2ccccc12,4.37
4,N#CCCl,0.45
5,COC(=O)COc1ccccc1,1.41
6,Oc1ccc(C(c2ccccc2)c2ccc(O)cc2)cc1,4.3
7,CCOc1ccc(S(I)=C(N(C)C)N(C)C)cc1 (stereo not given),-0.06
8,CC(C)NCc1cccnc1,0.82
9,Cc1cc2c(cc1S(N)(=O)=O)S(=O)(=O)NCN2,-0.22
10,O=C(O)c1cccc(C(=O)O)c1,1.66
11,CN(C)c1ccnnc1,-0.09
12,COc1ccc(C(=O)NN)cc1,0.25
13,Cc1cccc(NC(N)=O)c1,1.29
14,C[Si](C)(C)Cc1ccccc1,4.13
15,O=C(O)c1ccc2cccccc1-2,2.88
16,O=C1CCC(=O)N1c1ccc([N+](=O)[O-])cc1,0.46
17,CC(C)NC(C)(C)C,1.56
18,CC(=O)Nc1cccc2ncccc12,0.71
19,NCCCc1ccncc1,0.4
20,O=[N+]([O-])c1cccc(SSc2cccc([N+](=O)[O-])c2)c1,4.06
21,CCCSCS(=O)CC(CO)NC(=O)C=Cc1c(C)[nH]c(=O)[nH]c1=O (stereo not given),-0.67
22,CC(=O)NC(C)C(=O)NC(Cc1ccc(O)cc1)C(=O)NC(Cc1ccccc1)C(N)=O (stereo not drawn) (Ac-Ala-Tyr-Phe-NH2; configuration not given here),0.26
23,CCCCCC[N+](=O)[O-],2.7
24,Nc1cccc(O)c1,0.21
25,CCCOC(=O)c1cccnc1,1.94
26,CNc1nc(NC(C)(C)C)nc(SC(F)F)n1,3.91

row,SMILES,logP
1,CC(=O)Oc1ccccc1,1.49
2,CN(C)C(N(C)C)=S(I)c1cc(Cl)ccc1Cl (stereo not given),0.05
3,O=[N+]([O-])c1ccc2sccc2c1,2.92
4,CCCCOC(=O)NCC(C)c1ncc([N+](=O)[O-])[nH]1 (stereo not given),1.22
5,S=C(NN=Cc1ccco1)Nc1ccccc1,3.13
6,O=C(Cc1cccs1)N[C@@H]1C(=O)N2C(C(=O)[O-])=C(C[n+]3ccccc3)CS[C@H]12,-1.62
7,FC(F)(F)c1nc2cc(Cl)c(Cl)cc2[nH]1,3.49
8,CCCCCOC(N)=O,1.35
9,Fc1c(F)c(F)c(F)c(F)c1F,2.55
10,C=CCC(NC(C)=O)C(N)=O (stereo not given),-0.86
11,O=C(CI)NC(CO)C(O)c1ccc([N+](=O)[O-])cc1 (stereo not given),1.03
12,O=C(O)c1cccc(O)c1,1.5
13,CCCCCC(=O)OCC(=O)C1(O)CCC2C3CCC4=CC(=O)CCC4(C)C3C(O)CC21C (stereo not given),4.48
14,CCCC(=O)OCC1CCC(n2cnc3c(=O)[nH]cnc32)O1 (stereo not given),0.11
15,COc1cc(N)c(Cl)cc1C(=O)NC1CCN(Cc2ccccc2)CC1,3.58
16,COP(=S)(OC)Oc1ccc(Cl)cc1C#N,3.41
17,COc1c(C)cccc1C,3.02
18,O=C(NP(=O)(N1CC1)N1CC1)c1ccc(I)cc1,2.25
19,COc1ccc(CO)cc1,1.1
20,CCCCOC(=O)CNC(=O)CCCCSc1[nH]cnc2ncnc1-2,1.39
21,CC(=O)c1ccccc1C(=O)O,0.81
22,CCC(C)N (stereo not given),0.74
23,CCCCCc1ccccc1,4.9
24,CCCOc1c(OC)cc(CCN)cc1OC,1.7
25,O=c1cnn(C2OC(CO)C(O)C2O)c(=O)[nH]1 (stereo not given),-2.14
